Experimental findings from US10626115B2, “Fused pyrimidinone and triazinone derivatives containing bridged nitrogen, their process of preparation and their therapeutic uses as antifungal and/or antiparasitic agents” (UNIVERSITE DE NANTES, priority 2015, dated 2020) are described below.

Data set [1] relates to fluconazole-susceptible C. albicans strain: CAAL93. Description: Antifungal susceptibility, spectrofluorimetric microdilution, CAAL93. In kind it is cell-based. The conditions noted are these: Candida albicans, read-out: MIC values CAAL93. Here is the method:
(§1) Eight strains of Candida spp. with various azoles-susceptibilities were used: • One fluconazole-susceptible C. albicans strain: CAAL93 • Two fluconazole-resistant C. albicans strains: CAAL111 (efflux pump) and CAAL117 (erg11 mutations+voriconazole-resistant) • five fluconazole-resistant Candida non albicans strains: C. krusei (CAKR7, CAKR8), C. glabrata (CAGL2), C. parapsilosis s.l. (CAPA1, CAPA2).
(§2) Antifungal susceptibility was evaluated with a spectrofluorimetric microdilution method.
A general note: Dilution methods test growth across graded concentrations, often in twofold steps.

The subject of data set [2] is A. fumigatus susceptible strain ASFU38A. In words: Antifungal susceptibility, spectrofluorimetric microdilution, ASFU38A. It is filed as cell-based, Aspergillus fumigatus. As to conditions: Aspergillus fumigatus, read-out: MIC values ASFU38A. Here is the method:
(§3) Eleven strains of A. fumigatus with various itraconazole susceptibility were used: • Five susceptible strains: ASFU7, ASFU35A, ASFU38A, ASFU76 and ASFU78. • Six itraconazole-resistant strains: ASFU77 (erg11 mutation), ASFU13, ASFU17, ASFU19, ASFU20, ASFU23.
(§4) Antifungal susceptibility was evaluated with a spectrofluorimetric microdilution method. MIC was the concentration that was able to inhibit 80% of fluorescence measured in the control wells.

For data set [3], the system named is A. fumigatus susceptible strain ASFU7. Description: Antifungal susceptibility, spectrofluorimetric microdilution, ASFU7. It is filed as cell-based, Aspergillus fumigatus. As to conditions: Aspergillus fumigatus, read-out: MIC values ASFU7. On the procedure:
as §3, §4

Data set [4] has as its system A. fumigatus susceptible strain ASFU35A. Description: Antifungal susceptibility, spectrofluorimetric microdilution, ASFU35A. It is filed as cell-based, Aspergillus fumigatus. As to conditions: Aspergillus fumigatus, read-out: MIC values ASFU35A. Here is the method:
as §3, §4

For data set [5], the system named is A. fumigatus susceptible strain ASFU78. Description: Antifungal susceptibility, spectrofluorimetric microdilution, ASFU78. As to conditions: Aspergillus fumigatus, read-out: MIC values ASFU78. It is filed as cell-based, Aspergillus fumigatus. On the procedure: as §3, §4
Data set [6] has as its system A. fumigatus susceptible strain ASFU76. Description: Antifungal susceptibility, spectrofluorimetric microdilution, ASFU76. It is filed as cell-based, Aspergillus fumigatus. The conditions noted are these: Aspergillus fumigatus, read-out: MIC values ASFU76. On the procedure:
as §3, §4

Data set [7] has as its system A. fumigatus itraconazole-resistant strain ASFU77 (erg11 mutation). Description: Antifungal susceptibility, spectrofluorimetric microdilution, ASFU77. It is filed as cell-based, Aspergillus fumigatus. The conditions noted are these: for MIC: Aspergillus fumigatus, read-out: MIC values ASFU77. Here is the method:
as §3, §4

The subject of data set [8] is promastigote stage of a Leishmania mexicana strain. In words: Anti-Trypanosomatidae activity, promastigote stage, spectrofluorimetric microdilution. It is filed as cell-based. As to conditions: for IC50: Leishmania mexicana, promastigote stage, 50% of control growth, read-out: L. mexicana (IC50 μM). On the procedure: Compounds were evaluated on the promastigote stage of a Leishmania mexicana strain using a spectrofluorimetric microdilution method. Inhibitory concentration 50 (IC50) was the concentration that inhibited 50% of the control growth.

In data set [9] the test system is fluconazole-resistant C. krusei (CAKR8). In words: microbe, parasite or virus in culture. It is filed as cell-based. As to conditions: Pichia kudriavzevii, read-out: MIC values CAKR8. On the procedure:
as §1, §2

Data set [10] has as its system fluconazole-resistant C. albicans strain CAAL111 (efflux pump). Description: microbe, parasite or virus in culture. In kind it is cell-based. The conditions noted are these: Candida albicans, read-out: MIC values CAAL111. On the procedure:
as §1, §2

Data set [11] concerns fluconazole-resistant C. glabrata (CAGL2). In words: microbe, parasite or virus in culture. It is filed as cell-based. As to conditions: Nakaseomyces glabratus, read-out: MIC values CAGL2. Here is the method:
as §1, §2

Data set [12] has as its system fluconazole-resistant C. krusei (CAKR7). Description: microbe, parasite or virus in culture. As to conditions: Pichia kudriavzevii, read-out: MIC values CAKR7. In kind it is cell-based. On the procedure:
as §1, §2

The subject of data set [13] is fluconazole-resistant C. albicans strain CAAL117 (erg11 mutations+voriconazole-resistant). In words: microbe, parasite or virus in culture. In kind it is cell-based. The conditions noted are these: for MIC: Candida albicans, read-out: MIC values CAAL117; for fold more active than voriconazole against CAAL117: compared with voriconazole. Here is the method: as §1, §2

Converted amounts (≈) assume the structure as drawn.

As for `C[C@@H](n1ccc2nccn2c1=O)[C@](O)(Cn1cncn1)c1ccc(F)cc1F` [Compound 27, 6-[(1R,2R)-2-(2,4-Difluorophenyl)-2-hydroxy-1-methyl-3-(1H-1,2,4-triazol-1-yl)propyl]imidazo[1,2-c]pyrimidin-5-one], the melting point fell in the range of 156 to 157 °C. Also, the MIC in data set [1] was determined as 0.014 ± 0.001 µg/mL (≈ 0.0362 µM). Further, the MIC in [2] came to 23 ± 21.1 µg/mL (≈ 59.6 µM). Moreover, the MIC in data set [3] was 7.29 ± 0.22 µg/mL (≈ 18.9 µM). In addition, the MIC in data set [4] was found to be 6.96 ± 1.49 µg/mL (≈ 18 µM). Further, the MIC in data set [5] turned out to be 6.03 ± 0.95 µg/mL (≈ 15.6 µM). The MIC in data set [6] is 6.76 ± 0.1 µg/mL (≈ 17.5 µM). Besides, in data set [7], the “MIC values against ITRA-resistant isolate carrying M220T mutation (ASFU77), in words” value is “in the micromolar range” and the MIC was determined as 6.47 ± 0.03 µg/mL (≈ 16.7 µM). Also, the concentration for half-maximal inhibition (IC50) in data set [8] is greater than 100 µM.

`Cc1cn2c(=O)n([C@H](C)[C@](O)(Cn3cncn3)c3ccc(F)cc3F)ccc2n1` [Compound 28, 6-[(1R,2R)-2-(2,4-Difluorophenyl)-2-hydroxy-1-methyl-3-(1H-1,2,4-triazol-1-yl)propyl]-2-methylimidazo[1,2-c]pyrimidin-5-one] gave a melting point of 103 to 104 °C. For the same compound, the half-inhibitory concentration (IC50) in data set [8] was greater than 100 µM.

In the case of `C[C@@H](n1ccc2nc(-c3ccc(F)cc3)cn2c1=O)[C@](O)(Cn1cncn1)c1ccc(F)cc1F` [Compound 30, 6-[(1R,2R)-2-(2,4-Difluorophenyl)-2-hydroxy-1-methyl-3-(1H-1,2,4-triazol-1-yl)propyl]-2-(4-fluorophenyl)imidazo[1,2-c]pyrimidin-5-one], the melting point lay within 114 to 115 °C. Besides, in [8], the “effectiveness against the promastigote stage of L. Mexicana, in words” value is recorded as “effective” and the IC50 was found to be 8.1 ± 1.6 µM.

`C[C@@H](n1ccc2nc(-c3ccc(Cl)cc3)cn2c1=O)[C@](O)(Cn1cncn1)c1ccc(F)cc1F` [Compound 31, 6-[(1R,2R)-2-(2,4-Difluorophenyl)-2-hydroxy-1-methyl-3-(1H-1,2,4-triazol-1-yl)propyl]-2-(4-chlorophenyl)imidazo[1,2-c]pyrimidin-5-one] returned a melting point of 158 to 159 °C. The MIC in [1] is less than 0.001 µg/mL. Also, in data set [2], the MIC was 5.59 ± 0.15 µg/mL (≈ 11.2 µM). In addition, the MIC in data set [3] is 5.04 µg/mL (≈ 10.1 µM). In [4], the MIC was found to be 5.81 ± 0.5 µg/mL (≈ 11.7 µM). In addition, the MIC in [5] is 5.72 ± 0.39 µg/mL (≈ 11.5 µM). For the same compound, in [6], the MIC was found to be 5.7 ± 0.51 µg/mL (≈ 11.5 µM). For the same compound, in data set [7], the “MIC values against ITRA-resistant isolate carrying M220T mutation (ASFU77), in words” value was “in the micromolar range” and the MIC was 5.99 ± 0.33 µg/mL (≈ 12.1 µM).

On to `C[C@@H](n1ccc2nc(-c3ccc(Br)cc3)cn2c1=O)[C@](O)(Cn1cncn1)c1ccc(F)cc1F` [Compound 32, 6-[(1R,2R)-2-(2,4-Difluorophenyl)-2-hydroxy-1-methyl-3-(1H-1,2,4-triazol-1-yl)propyl]-2-(4-bromophenyl)imidazo[1,2-c]pyrimidin-5-one], for which the melting point fell in the range of 161 to 162 °C.

In the case of `C[C@@H](n1ccc2nc(-c3ccc(C(F)(F)F)cc3)cn2c1=O)[C@](O)(Cn1cncn1)c1ccc(F)cc1F` [Compound 33, 6-[(1R,2R)-2-(2,4-Difluorophenyl)-2-hydroxy-1-methyl-3-(1H-1,2,4-triazol-1-yl)propyl]-2-[(4-trifluoromethyl)phenyl]imidazo[1,2-c]pyrimidin-5-one], the melting point was 196 to 197 °C.

Turning to `C[C@@H](n1ccc2nc(-c3nccs3)cn2c1=O)[C@](O)(Cn1cncn1)c1ccc(F)cc1F` [Compound 36, 6-[(1R,2R)-2-(2,4-Difluorophenyl)-2-hydroxy-1-methyl-3-(1H-1,2,4-triazol-1-yl)propyl]-2-(thiazol-2-yl)imidazo[1,2-c]pyrimidin-5-one], the melting point was in the range of 175 to 176 °C.

With `CCOC(=O)c1cn2c(=O)n([C@H](C)[C@](O)(Cn3cncn3)c3ccc(F)cc3F)ccc2n1` [Compound 37, Ethyl-6-[(1R,2R)-2-(2,4-difluorophenyl)-2-hydroxy-1-methyl-3-(1H-1,2,4-triazol-1-yl)propyl]-5-oxo-imidazo[1,2-c]pyrimidine-2-carboxylate], the melting point was in the range of 148 to 149 °C.

In turn, `C[C@@H](n1ccc2nc(C#N)cn2c1=O)[C@](O)(Cn1cncn1)c1ccc(F)cc1F` [Compound 38, 6-[(1R,2R)-2-(2,4-Difluorophenyl)-2-hydroxy-1-methyl-3-(1H-1,2,4-triazol-1-yl)propyl]-5-oxo-imidazo[1,2-c]pyrimidine-2-carbonitrile] came in with a melting point of 132 to 133 °C.

Compound `C[C@@H](n1ncc2cc(Br)cn2c1=O)[C@](O)(Cn1cncn1)c1ccc(F)cc1F` [Compound 45, 7-Bromo-3-[(1R,2R)-2-(2,4-difluorophenyl)-2-hydroxy-1-methyl-3-(1,2,4-triazol-1-yl)propyl]-3H-pyrrolo[1,2-d][1,2,4]triazin-4-one] registered a melting point of 142 to 143 °C.

Compound `C[C@@H](n1ncc2cc(-c3ccccc3)cn2c1=O)[C@](O)(Cn1cncn1)c1ccc(F)cc1F` [Compound 47, 3-[(1R,2R)-2-(2,4-Difluorophenyl)-2-hydroxy-1-methyl-3-(1,2,4-triazol-1-yl)propyl]-7-phenyl-3H-pyrrolo[1,2-d][1,2,4]triazin-4-one] returned a melting point of 146 to 147 °C. The MIC in [1] is less than 0.001 µg/mL. Also, the MIC in data set [2] was determined as 58.4 ± 15.7 µg/mL (≈ 126 µM). In addition, the MIC in data set [3] came out at 44.1 ± 7.76 µg/mL (≈ 95.3 µM). Moreover, in data set [4], the MIC came to 41.3 ± 8.61 µg/mL (≈ 89.4 µM). Besides, the MIC in data set [5] came out at 54.7 ± 12.1 µg/mL (≈ 118 µM). Also, the MIC in [9] amounted to 0.014 µg/mL (≈ 0.0303 µM). Moreover, the MIC in data set [10] was determined as 0.016 ± 0.001 µg/mL (≈ 0.0346 µM). Moreover, in data set [11], the MIC was 0.008 ± 0.005 µg/mL (≈ 0.0173 µM). Further, in data set [12], the MIC was 0.013 ± 0.001 µg/mL (≈ 0.0281 µM). In data set [13], the MIC stood at 0.014 ± 0.002 µg/mL (≈ 0.0303 µM) and the “fold more active than voriconazole against CAAL117” value was 100 fold. Besides, the MIC in data set [6] turned out to be 48.4 ± 7.95 µg/mL (≈ 105 µM). For the same compound, the MIC in data set [7] was determined as 64.8 ± 7.46 µg/mL (≈ 140 µM).

Regarding `C[C@@H](n1ncc2cc(-c3ccc(C#N)cc3)cn2c1=O)[C@](O)(Cn1cncn1)c1ccc(F)cc1F` [Compound 49, 4-{3-[(1R,2R)-2-(2,4-Difluorophenyl)-2-hydroxy-1-methyl-3-(1,2,4-triazol-1-yl)propyl]-4-oxo-3,4-dihydro-pyrrolo[1,2-d][1,2,4]triazin-7-yl}benzonitrile], the melting point was 201 to 202 °C. For the same compound, the MIC in data set [1] is less than 0.048 µg/mL. Moreover, the MIC in data set [9] stood at 0.101 ± 0.014 µg/mL (≈ 0.207 µM). Besides, in [11], the MIC is 0.025 ± 0.01 µg/mL (≈ 0.0513 µM). Further, in data set [12], the MIC came to 0.058 ± 0.009 µg/mL (≈ 0.119 µM). Moreover, in data set [13], the MIC was 0.016 ± 0.001 µg/mL (≈ 0.0328 µM) and the “fold more active than voriconazole against CAAL117” value was 100 fold.

Regarding `N=C(N)c1ccc(OCCCCCOc2ccc(C(=N)N)cc2)cc1` [Pentamidine, reference compound], in [8], the 50% inhibitory concentration (IC50) stood at 0.34 ± 0.03 µM.

For orientation: melting point means the temperature of the solid-liquid transition. For orientation: IC50 means the midpoint of a concentration-inhibition curve.
